Reference: patent US20260234129A1, “NOVEL IMIDAZOLE DERIVATIVE AND USE THEREOF” (PELEMED CO., LTD., priority 2023, published 2026)

What was measured:
Assay in all cases: scanMax kinase panel (Eurofins)
Assay type in all cases: binding
IRAK4 = biological target: T1, IRAK4 (Homo sapiens, UniProt Q9NWZ3); conditions: IRAK4, 1 μM; read-out: % control
T1 construct: purchased Eurofins
Description: (§1) The following assay method was performed to evaluate the inhibitory activities of a compound according to the present invention with respect to various enzymes. […] The compound was applied to the enzyme at a concentration of 1 μM, dissolved in DMSO, and the % control was determined according to Equation 1 below.
(§2) Here, the positive control refers to a compound corresponding to 0% control, and the negative control refers to a compound corresponding to 100% control.

CDK5 = biological target: T2, CDK5 (Homo sapiens, UniProt Q00535); conditions: CDK5, 1 μM; read-out: % control
T2 construct: purchased Eurofins scanMax® kinase panel
Description: as §1, §2

PAK3 = biological target: T3, PAK3 (Homo sapiens, UniProt O75914); conditions: PAK3, 1 μM; read-out: % control
T3 construct: purchased Eurofins scanMax kinase panel
Description: as §1, §2

KIT(L576P) = biological target: T4, KIT(L576P) (Homo sapiens, UniProt P10721, L576P); conditions: read-out: % control
T4 construct: purchased Eurofins
Description: as §1, §2

[1] = biological target: T5, JAK1(JH2domain-pseudokinase) (Homo sapiens, UniProt P23458); conditions: read-out: % control
T5 construct: JAK1(JH2domain-pseudokinase); purchased Eurofins
Description: as §1, §2

MAP3K2 = biological target: T6, MAP3K2 (Homo sapiens, UniProt Q9Y2U5); conditions: MAP3K2, 1 μM; read-out: % control
T6 construct: purchased Eurofins
Description: as §1, §2

[2] = biological target: T7, ABL1(T315I)-phosphorylated (Homo sapiens, UniProt P00519, T315I); conditions: read-out: % control
T7 construct: purchased Eurofins
Description: as §1, §2

DYRK2 = biological target: T8, DYRK2 (Homo sapiens, UniProt Q92630); conditions: DYRK2, 1 μM; read-out: % control
T8 construct: purchased Eurofins scanMax® kinase panel
Description: as §1, §2

TRKB = biological target: T9, TRKB (Homo sapiens, UniProt Q16620); conditions: read-out: % control
T9 construct: purchased Eurofins scanMax kinase panel
Description: as §1, §2

KIT(V559D) = biological target: T10, KIT(V559D) (Homo sapiens, UniProt P10721, V559D); conditions: read-out: % control
T10 construct: purchased Eurofins
Description: as §1, §2

ARK5 = biological target: T11, ARK5 (Homo sapiens, UniProt O60285); conditions: ARK5, 1 μM; read-out: % control
T11 construct: purchased Eurofins
Description: as §1, §2

[3] = biological target: T12, ABL1(E255K)-phosphorylated (Homo sapiens, UniProt P00519, E255K); conditions: read-out: % control
T12 construct: purchased Eurofins
Description: as §1, §2

PAK4 = biological target: T13, PAK4 (Homo sapiens, UniProt O96013); conditions: PAK4, 1 μM; read-out: % control
T13 construct: purchased Eurofins scanMax kinase panel
Description: as §1, §2

MAP3K3 = biological target: T14, MAP3K3 (Homo sapiens, UniProt Q99759); conditions: MAP3K3, 1 μM; read-out: % control
T14 construct: purchased Eurofins
Description: as §1, §2

CDK7 = biological target: T15, CDK7 (Homo sapiens, UniProt P50613); conditions: CDK7, 1 μM; read-out: % control
T15 construct: purchased Eurofins scanMax® kinase panel
Description: as §1, §2

GSK3A = biological target: T16, GSK3A (Homo sapiens, UniProt P49840); conditions: read-out: % control
T16 construct: purchased Eurofins scanMax® kinase panel
Description: as §1, §2

MEK3 = biological target: T17, MEK3 (Homo sapiens, UniProt P46734); conditions: MEK3, 1 μM; read-out: % control
T17 construct: purchased Eurofins
Description: as §1, §2

HIPK1 = biological target: T18, HIPK1 (Homo sapiens, UniProt Q86Z02); conditions: HIPK1, 1 μM; read-out: % control
T18 construct: purchased Eurofins scanMax® kinase panel
Description: as §1, §2

[4] = biological target: T19, JAK2(JH1domain-catalytic) (Homo sapiens, UniProt O60674); conditions: read-out: % control
T19 construct: JAK2(JH1domain-catalytic); purchased Eurofins
Description: as §1, §2

AURKB = biological target: T20, AURKB (Homo sapiens, UniProt Q96GD4); conditions: read-out: % control
T20 construct: purchased Eurofins
Description: as §1, §2

[5] = biological target: T21, ABL1(Y253F)-phosphorylated (Homo sapiens, UniProt P00519, Y253F); conditions: read-out: % control
T21 construct: purchased Eurofins
Description: as §1, §2

[6] = biological target: T22, ABL1(F317I)-phosphorylated (Homo sapiens, UniProt P00519, F317I); conditions: read-out: % control
T22 construct: purchased Eurofins
Description: as §1, §2

KIT(A829P) = biological target: T23, KIT(A829P) (Homo sapiens, UniProt P10721, A829P); conditions: read-out: % control
T23 construct: purchased Eurofins
Description: as §1, §2

[7] = biological target: T24, ABL1(T315I)-nonphosphorylated (Homo sapiens, UniProt P00519, T315I); conditions: read-out: % control
T24 construct: purchased Eurofins
Description: as §1, §2

SRC = biological target: T25, SRC (Homo sapiens, UniProt P12931); conditions: read-out: % control
T25 construct: purchased Eurofins scanMax kinase panel
Description: as §1, §2

[8] = biological target: T26, JAKI(JH1domain-catalytic) (Homo sapiens, UniProt P23458); conditions: read-out: % control
T26 construct: JAKI(JH1domain-catalytic); purchased Eurofins
Description: as §1, §2

AURKA = biological target: T27, AURKA (Homo sapiens, UniProt O14965); conditions: read-out: % control
T27 construct: purchased Eurofins
Description: as §1, §2

AURKC = biological target: T28, AURKC (Homo sapiens, UniProt Q9UQB9); conditions: read-out: % control
T28 construct: purchased Eurofins
Description: as §1, §2

TRKA = biological target: T29, TRKA (Homo sapiens, UniProt P04629); conditions: read-out: % control
T29 construct: purchased Eurofins scanMax kinase panel
Description: as §1, §2

HIPK3 = biological target: T30, HIPK3 (Homo sapiens, UniProt Q9H422); conditions: HIPK3, 1 μM; read-out: % control
T30 construct: purchased Eurofins
Description: as §1, §2

PIM1 = biological target: T31, PIM1 (Homo sapiens, UniProt P11309); conditions: PIM1, 1 μM; read-out: % control
T31 construct: purchased Eurofins scanMax kinase panel
Description: as §1, §2

PAK7 = biological target: T32, PAK7 (Homo sapiens, UniProt Q9P286); conditions: PAK7, 1 μM; read-out: % control
T32 construct: purchased Eurofins scanMax kinase panel
Description: as §1, §2

RET = biological target: T33, RET (Homo sapiens, UniProt P07949); conditions: read-out: % control
T33 construct: purchased Eurofins scanMax kinase panel
Description: as §1, §2

Measured: remaining binding at 1 µM

T2 sequence (Q00535 whole entry): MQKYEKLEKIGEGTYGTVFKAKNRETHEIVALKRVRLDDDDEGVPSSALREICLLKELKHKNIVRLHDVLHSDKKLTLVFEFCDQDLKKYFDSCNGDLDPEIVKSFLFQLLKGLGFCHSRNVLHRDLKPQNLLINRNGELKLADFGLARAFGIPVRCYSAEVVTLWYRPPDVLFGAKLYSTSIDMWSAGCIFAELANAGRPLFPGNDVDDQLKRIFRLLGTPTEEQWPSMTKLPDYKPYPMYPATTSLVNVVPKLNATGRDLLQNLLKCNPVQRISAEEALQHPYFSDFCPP
T23 sequence (P10721 26-976 A829P): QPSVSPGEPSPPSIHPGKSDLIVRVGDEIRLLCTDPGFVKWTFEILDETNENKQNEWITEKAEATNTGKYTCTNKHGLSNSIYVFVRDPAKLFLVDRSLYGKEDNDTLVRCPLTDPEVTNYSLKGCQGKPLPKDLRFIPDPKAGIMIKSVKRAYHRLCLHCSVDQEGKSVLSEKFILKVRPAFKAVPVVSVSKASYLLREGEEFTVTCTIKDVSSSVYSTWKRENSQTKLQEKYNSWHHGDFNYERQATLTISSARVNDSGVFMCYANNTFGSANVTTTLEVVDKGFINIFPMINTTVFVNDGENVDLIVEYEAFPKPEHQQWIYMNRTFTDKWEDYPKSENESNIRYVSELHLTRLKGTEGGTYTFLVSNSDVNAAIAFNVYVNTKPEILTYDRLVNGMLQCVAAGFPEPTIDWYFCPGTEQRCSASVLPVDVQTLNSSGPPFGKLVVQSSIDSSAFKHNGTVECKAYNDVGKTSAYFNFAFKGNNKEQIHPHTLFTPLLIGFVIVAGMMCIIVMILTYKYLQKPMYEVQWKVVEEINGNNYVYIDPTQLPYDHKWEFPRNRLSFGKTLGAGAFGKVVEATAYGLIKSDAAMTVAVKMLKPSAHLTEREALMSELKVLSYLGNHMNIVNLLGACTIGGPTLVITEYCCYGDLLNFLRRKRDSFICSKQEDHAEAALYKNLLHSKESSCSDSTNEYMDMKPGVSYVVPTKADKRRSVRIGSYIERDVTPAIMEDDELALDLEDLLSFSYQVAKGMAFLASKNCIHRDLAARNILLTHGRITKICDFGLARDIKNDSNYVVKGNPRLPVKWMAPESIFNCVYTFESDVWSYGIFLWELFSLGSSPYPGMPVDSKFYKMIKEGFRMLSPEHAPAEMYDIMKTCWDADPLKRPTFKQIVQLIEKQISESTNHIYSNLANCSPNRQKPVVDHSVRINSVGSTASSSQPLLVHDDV
T27 sequence (O14965 whole entry): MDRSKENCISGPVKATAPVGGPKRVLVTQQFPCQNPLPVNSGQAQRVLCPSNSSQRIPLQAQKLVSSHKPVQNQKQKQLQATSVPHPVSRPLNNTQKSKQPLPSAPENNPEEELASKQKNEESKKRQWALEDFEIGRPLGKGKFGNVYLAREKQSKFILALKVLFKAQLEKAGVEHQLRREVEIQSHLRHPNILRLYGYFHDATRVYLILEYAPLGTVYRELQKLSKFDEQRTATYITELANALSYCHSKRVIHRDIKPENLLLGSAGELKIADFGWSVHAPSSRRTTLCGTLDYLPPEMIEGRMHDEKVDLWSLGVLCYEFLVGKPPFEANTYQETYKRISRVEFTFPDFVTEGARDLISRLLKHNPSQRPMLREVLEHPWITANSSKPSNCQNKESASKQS
T33 sequence (P07949 29-1114): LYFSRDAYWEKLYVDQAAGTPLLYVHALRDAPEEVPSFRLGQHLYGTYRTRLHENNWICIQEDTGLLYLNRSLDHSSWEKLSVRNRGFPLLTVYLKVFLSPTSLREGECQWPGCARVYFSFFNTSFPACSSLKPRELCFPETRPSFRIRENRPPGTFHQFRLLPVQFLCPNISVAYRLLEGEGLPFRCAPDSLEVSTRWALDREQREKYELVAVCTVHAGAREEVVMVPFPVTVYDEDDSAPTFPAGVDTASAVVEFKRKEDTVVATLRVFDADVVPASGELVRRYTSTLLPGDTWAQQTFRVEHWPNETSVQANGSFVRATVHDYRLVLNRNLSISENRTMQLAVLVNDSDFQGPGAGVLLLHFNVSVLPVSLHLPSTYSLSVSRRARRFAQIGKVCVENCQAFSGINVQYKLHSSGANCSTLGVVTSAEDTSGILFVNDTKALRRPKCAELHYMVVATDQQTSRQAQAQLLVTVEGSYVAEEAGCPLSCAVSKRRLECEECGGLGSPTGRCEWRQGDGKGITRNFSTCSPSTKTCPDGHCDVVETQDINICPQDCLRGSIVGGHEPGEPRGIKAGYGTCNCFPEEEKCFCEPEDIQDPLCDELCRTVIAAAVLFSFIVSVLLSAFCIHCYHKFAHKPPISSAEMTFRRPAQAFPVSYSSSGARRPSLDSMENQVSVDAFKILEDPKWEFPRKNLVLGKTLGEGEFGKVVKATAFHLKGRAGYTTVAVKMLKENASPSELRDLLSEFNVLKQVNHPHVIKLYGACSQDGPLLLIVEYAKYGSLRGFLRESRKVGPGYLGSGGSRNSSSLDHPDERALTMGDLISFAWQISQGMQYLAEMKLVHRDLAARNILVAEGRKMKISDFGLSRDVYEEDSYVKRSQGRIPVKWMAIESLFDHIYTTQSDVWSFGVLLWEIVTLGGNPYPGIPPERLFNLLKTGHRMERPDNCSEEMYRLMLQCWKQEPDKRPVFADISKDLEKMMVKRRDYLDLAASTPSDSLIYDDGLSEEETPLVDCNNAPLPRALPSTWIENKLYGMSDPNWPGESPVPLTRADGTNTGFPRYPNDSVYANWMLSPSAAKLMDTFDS
T3 sequence (O75914 whole entry): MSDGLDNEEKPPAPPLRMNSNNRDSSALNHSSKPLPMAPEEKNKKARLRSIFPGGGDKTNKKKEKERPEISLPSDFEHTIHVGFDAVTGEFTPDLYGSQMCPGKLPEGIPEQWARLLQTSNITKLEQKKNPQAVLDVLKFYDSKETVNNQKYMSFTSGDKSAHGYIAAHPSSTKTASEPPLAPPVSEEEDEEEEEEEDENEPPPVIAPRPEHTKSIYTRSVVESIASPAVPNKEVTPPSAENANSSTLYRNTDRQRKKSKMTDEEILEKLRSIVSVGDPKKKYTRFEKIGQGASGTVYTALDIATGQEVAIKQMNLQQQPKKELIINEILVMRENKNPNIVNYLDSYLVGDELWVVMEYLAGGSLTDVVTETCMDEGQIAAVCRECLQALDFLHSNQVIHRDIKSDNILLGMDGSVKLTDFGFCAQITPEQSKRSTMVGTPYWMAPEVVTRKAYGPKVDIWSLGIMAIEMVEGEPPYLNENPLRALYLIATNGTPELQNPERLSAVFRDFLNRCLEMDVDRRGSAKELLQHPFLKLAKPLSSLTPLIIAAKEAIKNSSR
T4 sequence (P10721 26-976 L576P): as the sequence (P10721 26-976 A829P) above, with L551P, P804A counted along it
T30 sequence (Q9H422 whole entry): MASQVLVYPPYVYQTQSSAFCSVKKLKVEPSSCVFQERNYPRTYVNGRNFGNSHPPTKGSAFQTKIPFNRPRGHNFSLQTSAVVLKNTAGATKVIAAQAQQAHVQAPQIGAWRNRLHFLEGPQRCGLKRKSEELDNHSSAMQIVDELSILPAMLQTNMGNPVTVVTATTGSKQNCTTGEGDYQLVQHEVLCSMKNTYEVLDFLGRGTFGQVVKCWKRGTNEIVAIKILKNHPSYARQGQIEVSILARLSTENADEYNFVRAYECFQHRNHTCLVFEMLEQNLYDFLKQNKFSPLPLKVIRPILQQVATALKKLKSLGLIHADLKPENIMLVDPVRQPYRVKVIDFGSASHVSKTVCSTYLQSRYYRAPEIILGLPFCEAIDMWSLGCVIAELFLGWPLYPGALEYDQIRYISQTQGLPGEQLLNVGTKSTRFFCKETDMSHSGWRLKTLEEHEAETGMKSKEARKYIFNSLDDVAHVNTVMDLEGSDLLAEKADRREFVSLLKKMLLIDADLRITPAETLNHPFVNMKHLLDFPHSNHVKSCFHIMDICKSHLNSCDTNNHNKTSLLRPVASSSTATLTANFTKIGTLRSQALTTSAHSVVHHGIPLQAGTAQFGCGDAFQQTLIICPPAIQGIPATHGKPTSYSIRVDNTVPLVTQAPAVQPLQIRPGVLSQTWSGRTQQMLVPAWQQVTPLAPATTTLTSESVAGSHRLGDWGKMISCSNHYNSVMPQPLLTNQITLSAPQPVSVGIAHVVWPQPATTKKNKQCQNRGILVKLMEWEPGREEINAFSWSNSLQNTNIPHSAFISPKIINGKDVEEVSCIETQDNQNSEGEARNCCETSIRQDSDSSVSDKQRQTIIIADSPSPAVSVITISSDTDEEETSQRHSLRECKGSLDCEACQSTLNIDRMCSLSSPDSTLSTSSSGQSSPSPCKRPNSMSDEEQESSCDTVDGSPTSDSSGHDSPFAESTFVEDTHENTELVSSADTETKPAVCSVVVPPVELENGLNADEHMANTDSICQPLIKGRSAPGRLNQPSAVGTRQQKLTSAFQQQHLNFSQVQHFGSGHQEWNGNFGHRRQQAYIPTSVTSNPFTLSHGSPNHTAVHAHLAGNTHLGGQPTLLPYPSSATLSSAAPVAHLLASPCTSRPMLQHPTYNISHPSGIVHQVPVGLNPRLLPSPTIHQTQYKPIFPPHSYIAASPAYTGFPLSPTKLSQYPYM
T10 sequence (P10721 26-976 V559D): as the sequence (P10721 26-976 A829P) above, with V534D, P804A counted along it
T20 sequence (Q96GD4 whole entry): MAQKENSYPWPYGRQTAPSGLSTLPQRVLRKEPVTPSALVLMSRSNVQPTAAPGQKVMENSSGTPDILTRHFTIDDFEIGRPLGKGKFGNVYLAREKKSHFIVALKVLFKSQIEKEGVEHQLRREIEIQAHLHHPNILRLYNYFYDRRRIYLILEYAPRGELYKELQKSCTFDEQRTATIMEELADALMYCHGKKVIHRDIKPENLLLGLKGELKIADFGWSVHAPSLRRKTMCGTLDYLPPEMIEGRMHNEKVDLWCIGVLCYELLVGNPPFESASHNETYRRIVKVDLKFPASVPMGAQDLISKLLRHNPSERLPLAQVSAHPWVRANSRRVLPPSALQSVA

COc1ccc2nc(-c3n[nH]c4ccc(C(=O)N[C@H]5CC[C@H](N)C5)cc34)[nH]c2c1 [Example 32, N-((1S,3S)-3-aminocyclopentyl)-3-(6-methoxy-1H-benzo[d]imidazol-2-yl)-1H-indazole-5-carboxamide]
< 10%: all assays above
